Results as given in US20050130989A1, “N-arylheteroaromatic products compositions containing them and use thereof” (Aventis Pharma S. A., priority 2003, published 2005).

Key:
tubulin = target: T1, tubulin (Sus scrofa, UniProt P02550+P02554); assay: Evaluation of the inhibition of tubulin polymerization (turbidimetry); assay type: biochemical, pig; conditions: tubulin 10 μm (1 mg/ml), 37° C., turbidity at 350 nm; concentration that inhibits the rate of polymerization by 50%; read-out: Inhibition of tubulin polymerization IC 50 (μm)
T1 construct: Tubulin is purified from pig brain according to published methods; from tissue; host or cells: pig brain
T1 sequence (P02550 whole entry): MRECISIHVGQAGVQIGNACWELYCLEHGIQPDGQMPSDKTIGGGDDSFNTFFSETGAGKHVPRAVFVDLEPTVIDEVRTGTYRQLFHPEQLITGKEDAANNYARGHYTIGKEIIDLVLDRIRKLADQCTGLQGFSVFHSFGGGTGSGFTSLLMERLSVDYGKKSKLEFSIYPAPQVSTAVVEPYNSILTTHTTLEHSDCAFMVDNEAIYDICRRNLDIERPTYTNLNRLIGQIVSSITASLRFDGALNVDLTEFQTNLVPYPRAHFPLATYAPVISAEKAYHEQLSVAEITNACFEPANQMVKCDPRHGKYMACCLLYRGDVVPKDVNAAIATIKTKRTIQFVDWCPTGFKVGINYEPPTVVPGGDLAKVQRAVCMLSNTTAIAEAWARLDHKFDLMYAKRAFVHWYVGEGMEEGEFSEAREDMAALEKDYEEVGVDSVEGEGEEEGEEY
T1 sequence (P02554 whole entry): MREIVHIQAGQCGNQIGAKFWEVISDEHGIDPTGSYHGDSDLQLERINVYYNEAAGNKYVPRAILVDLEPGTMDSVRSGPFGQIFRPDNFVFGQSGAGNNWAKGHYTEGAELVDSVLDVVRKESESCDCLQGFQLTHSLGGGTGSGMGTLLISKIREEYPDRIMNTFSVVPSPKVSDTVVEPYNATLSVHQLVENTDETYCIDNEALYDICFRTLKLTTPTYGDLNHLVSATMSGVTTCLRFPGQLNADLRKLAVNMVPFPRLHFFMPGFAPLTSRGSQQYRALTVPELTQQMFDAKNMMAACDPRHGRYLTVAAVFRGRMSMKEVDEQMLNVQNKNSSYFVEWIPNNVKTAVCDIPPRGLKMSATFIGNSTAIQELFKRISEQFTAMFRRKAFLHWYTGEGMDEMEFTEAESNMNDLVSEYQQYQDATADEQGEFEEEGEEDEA
In short: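 Pig brain tubulin (>95% pure), 10 μm in MES pH 6.8/30% glycerol buffer plus 1 mM GTP and 6 mM MgCl2, with compound at 0.5–10 μm added before polymerization. Polymerization triggered by shift from 6° C to 37° C, followed by turbidity at 350 nm; IC50 is 50% inhibition of polymerization rate.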

HCT116 cells = assay: Inhibition of proliferation of the human colon tumor line HCT116 ([14C]-thymidine incorporation); assay type: cell-based; conditions: Homo sapiens, HCT-116, 48 h, 48 hours at 37° C., read-out: Inhibition of HCT116 proliferation IC 50 (μm)
In short: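 HCT116 cells (5000/well) in DMEM with 10% fetal calf serum incubated 48 h at 37° C with [14C]-thymidine (0.1 μCi/well) and compound up to 10 μm (DMSO ≤0.5%). Incorporated radioactivity counted; IC50 is concentration cutting radioactivity by 50% versus untreated control.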

IC50 (tubulin) [nM]	IC50 (HCT116 cells) [nM]	SMILES
1700	10.6	O=C(c1cc(Br)nn1-c1ccccc1)N1CCN(c2cccc(Cl)c2)CC1 [Example E65, (5-Bromo-2-phenyl-2H-pyrazol-3-yl)[4-(3-chlorophenyl)piperazin-1-yl]-methanone]
3700	1830	O=C(c1cc(-c2ccccc2)nn1-c1ccccc1)N1CCN(c2cccc(Cl)c2)CC1 [Example E66, [4-(3-Chlorophenyl)piperazin-1-yl](2,5-diphenyl-2H-pyrazol-3-yl)methanone]
2300	237	O=C(c1cc(-c2cccnc2)nn1-c1ccccc1)N1CCN(c2cccc(Cl)c2)CC1 [Example E67, [4-(3-Chlorophenyl)piperazin-1-yl][2-phenyl-5-(pyrid-3-yl)-2H-pyrazol-3-yl]methanone]
1400	339	O=C(c1cc(-c2ccsc2)nn1-c1ccccc1)N1CCN(c2cccc(Cl)c2)CC1 [Example E68, [4-(3-Chlorophenyl)piperazin-1-yl][2-phenyl-5-(thiophen-3-yl)-2H-pyrazol-3-yl]methanone]
1700	6150	O=C(c1cc(-c2cccs2)nn1-c1ccccc1)N1CCN(c2cccc(Cl)c2)CC1 [Example E69, [4-(3-Chlorophenyl)piperazin-1-yl][2-phenyl-5-(thiophen-2-yl)-2H-pyrazol-3-yl]methanone]
1300	10.8	O=Cc1cc(C(=O)N2CCN(c3cccc(Cl)c3)CC2)n(-c2ccccc2)n1 [Example E70, 5-[4-(3-Chlorophenyl)piperazine-1-carbonyl]-1-phenyl-1H-pyrazole-3-carboxaldehyde]
1550	6.6	Cc1cc(C(=O)N2CCN(c3ccc(F)c(Cl)c3)CC2)n(-c2ccccc2)n1 [Example E72, [4-(3-Chloro-4-fluorophenyl)piperazin-1-yl](5-methyl-2-phenyl-2H-pyrazol-3-yl)methanone]
990	6.9	COc1cc(OC)cc(N2CCN(C(=O)c3cc(CO)nn3-c3ccccc3)CC2)c1 [Example E73, [4-(3,5-Dimethoxyphenyl)piperazin-1-yl](3-hydroxymethyl-1-phenyl-1H-pyrazol-5-yl)methanone]
5100	61.2	Cc1nccn1Cc1cc(C(=O)N2CCN(c3cccc(Cl)c3)CC2)n(-c2ccccc2)n1 [Example E75, [4-(3-Chlorophenyl)piperazin-1-yl][5-(2-methylimidazol-1-ylmethyl)-2-phenyl-2H-pyrazol-3-yl]methanone]
1900	138	O=C(c1cc(CNc2ccccc2)nn1-c1ccccc1)N1CCN(c2cccc(Cl)c2)CC1 [Example E76, [4-(3-Chlorophenyl)piperazin-1-yl](2-phenyl-5-phenylaminomethyl-2H-pyrazol-3-yl)methanone]
700	26.7	Cc1cc(C(=O)N2CCN(c3cc(Cl)ccc3Br)CC2)n(-c2ccccc2)n1 [Example E77, [4-(2-Bromo-5-chlorophenyl)piperazin-1-yl](5-methyl-2-phenyl-2H-pyrazol-3-yl)methanone]
14000	318	COc1cc(OC)cc(N2CCN(C(=O)c3cc(C(Br)Br)nn3-c3ccccc3)CC2)c1 [Example E78, [4-(3,5-Dimethoxyphenyl)piperazin-1-yl](3-dibromomethyl-1-phenyl-1H-pyrazol-5-yl)methanone]
2200	1040	Cc1cc(C(=O)N2CCN(c3cc(Cl)c(Br)cc3Br)CC2)n(-c2ccccc2)n1 [Example E79, [4-(2,4-Dibromo-5-chlorophenyl)piperazin-1-yl](5-methyl-2-phenyl-2H-pyrazol-3-yl)methanone]
4400	1130	O=C(c1cc(COCc2ccccc2)nn1-c1ccccc1)N1CCN(c2cccc(Cl)c2)CC1 [Example E80, (5-Benzyloxymethyl-2-phenyl-2H-pyrazol-3-yl)[4-(3-chlorophenyl)piperazin-1-yl]methanone]
940	1.8	COc1cc(OC)cc(N2CCN(C(=O)c3cc(Br)nn3-c3ccccc3)CC2)c1 [Example E82, (5-Bromo-2-phenyl-2H-pyrazol-3-yl)[4-(3,5-dimethoxyphenyl)piperazin-1-y]-methanone]
1390	181	COc1cc(OC)cc(N2CCN(C(=O)c3cc(-c4ccsc4)nn3-c3ccccc3)CC2)c1 [Example E85, [4-(3,5-Dimethoxyphenyl)piperazin-1-yl][2-phenyl-5-(thiophen-3-yl)-2H-pyrazol-3-yl]methanone]
870	6.8	C/C=C/c1cc(C(=O)N2CCN(c3cc(OC)cc(OC)c3)CC2)n(-c2ccccc2)n1 [Example E86]

IC50 (tubulin) [nM]	IC50 (HCT116 cells) [nM]	SMILES
1260	1280	COc1cc(OC)cc(N2CCN(C(=O)c3cc(/C=C/c4ccc(F)cc4)nn3-c3ccccc3)CC2)c1 [Example E87, [4-(3,5-Dimethoxyphenyl)piperazin-1-yl]-{5-[E-2-(4-fluorophenyl)vinyl]-2-phenyl-2H-pyrazol-3-yl}methanone]
4530	1260	COc1cc(OC)cc(N2CCN(C(=O)c3cc(-c4ccc(F)cc4)nn3-c3ccccc3)CC2)c1 [Example E88, [4-(3,5-Dimethoxyphenyl)piperazin-1-yl][5-(4-fluorophenyl)-2-phenyl-2H-pyrazol-3-yl]methanone]
3420	1100	COc1cc(OC)cc(N2CCN(C(=O)c3cc(-c4ccc(C(F)(F)F)cc4)nn3-c3ccccc3)CC2)c1 [Example E89, [4-(3,5-Dimethoxyphenyl)piperazin-1-yl][2-phenyl-5-(4-trifluoromethylphenyl)-2H-pyrazol-3-yl]methanone]
1730	18.8	COc1cc(OC)cc(N2CCN(C(=O)c3cc(-c4ccoc4)nn3-c3ccccc3)CC2)c1 [Example E90, [4-(3,5-Dimethoxyphenyl)piperazin-1-yl][5-(furan-3-yl)-2-phenyl-2H-pyrazol-3-yl]methanone]
1000	10.5	COc1cc(OC)cc(N2CCN(C(=O)c3cc(-c4ccc[nH]4)nn3-c3ccccc3)CC2)c1 [Example E91, [4-(3,5-Dimethoxyphenyl)piperazin-1-yl][2-phenyl-5-(1H-pyrrol-2-yl)-2H-pyrazol-3-yl]methanone]
1160	1	COc1cc(OC)cc(N2CCN(C(=O)c3ccnn3-c3ccccc3)CC2)c1 [Example E92, [4-(3,5-Dimethoxyphenyl)piperazin-1-yl](2-phenyl-2H-pyrazol-3-yl)methanone]
2020	6.3	COc1cc(OC)cc(N2CCN(C(=O)c3cc(N4CCCC4)nn3-c3ccccc3)CC2)c1 [Example E93, [4-(3,5-Dimethoxyphenyl)piperazin-1-yl][2-phenyl-5-(pyrrolidin-1-yl)-2H-pyrazol-3-yl]methanone]
900	2	COc1cc(OC)cc(N2CCN(C(=O)c3cc(/C=N/O)nn3-c3ccccc3)CC2)c1 [Example E94, 5-[4-(3,5-Dimethoxyphenyl)piperazine-1-carbonyl]-1-phenyl-1H-pyrazole-3-carboxaldehyde oxime E]
800	0.17	COc1cc(OC)cc(N2CCN(C(=O)c3cc(/C=N\O)nn3-c3ccccc3)CC2)c1 [Example E95, 5-[4-(3,5-Dimethoxyphenyl)piperazine-1-carbonyl]-1-phenyl-1H-pyrazole-3-carboxaldehyde oxime Z]
11400	73.3	COc1cc(OC)cc(N2CCN(C(=O)c3cc(N4CCOCC4)nn3-c3ccccc3)CC2)c1 [Example E96, [4-(3,5-Dimethoxyphenyl)piperazin-1-yl][5-(morpholin-4-yl)-2-phenyl-2H-pyrazol-3-yl]methanone]
3600	81.1	Cc1cc(C(=O)N2CCN(c3cccc(C(N)=O)c3)CC2)n(-c2cccnc2)n1 [Example E97, 3-[4-(5-Methyl-2-pyrid-3-yl-2H-pyrazole-3-carbonyl)piperazin-1-yl]benzamide]
1400	223	COc1cc(OC)cc(N2CCN(C(=O)c3cc(NCc4ccccc4)nn3-c3ccccc3)CC2)c1 [Example E98, (5-Benzylamino-2-phenyl-2H-pyrazol-3-yl)[4-(3,5-dimethoxyphenyl)piperazin-1-yl]methanone]
1000	2.4	COc1cc(OC)cc(N2CCN(C(=O)c3cc(N)nn3-c3ccccc3)CC2)c1 [Example E99, (5-Amino-2-phenyl-2H-pyrazol-3-yl)[4-(3,5-dimethoxyphenyl)piperazin-1-yl]methanone]
500	4.1	COc1cc(OC)cc(N2CCN(C(=O)c3cc(C=O)nn3-c3ccccc3)CC2)c1 [Example E100, 5-[4-(3,5-Dimethoxyphenyl)piperazine-1-carbonyl]-1-phenyl-1H-pyrazole-3-carboxaldehyde]
1000	16.7	Cc1cc(C(=O)N2CCN(c3cccc(NCCO)c3)CC2)n(-c2ccccc2)n1 [Example E103, {4-[3-(2-Hydroxyethylamino)phenyl]piperazin-1-yl}-(5-methyl-2-phenyl-2H-pyrazol-3-yl)methanone]
8000	839	Cc1cc(C(=O)N2CCN(c3ccsc3)CC2)n(-c2ccccc2)n1 [Example E104, (5-Methyl-2-phenyl-2H-pyrazol-3-yl)[4-(thiophen-3-yl)piperazin-1-yl]-methanone]
